Measured values as given in patent publication US20120029187A1, “HALOALKYLSULFONANILIDE DERIVATIVE” (Nissan Chemical Industries, Ltd., priority 2009, published 2012).

Tests used:
Assay type in all cases: in vivo
velvetleaf [1] = test: Test Example 4: herbicidal effect in foliage treatment; conditions: dose 3.2 g/a
Procedure, shortened: (§1)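 14-day greenhouse-grown plants (25–30° C) sprayed on foliage with diluted EC; dose as g/a; effect graded after 3 weeks.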

barnyardgrass [2] = test: as above; conditions: dose 3.2 g/a
Procedure, shortened: as §1

common lambsquater [3] = test: as above; conditions: dose 3.2 g/a
Procedure, shortened: as §1

giant foxtail [4] = test: as above; conditions: dose 3.2 g/a
Procedure, shortened: as §1

beadstraw [5] = test: as above; conditions: dose 3.2 g/a
Procedure, shortened: as §1

redroot pigweed [6] = test: as above; conditions: dose 3.2 g/a
Procedure, shortened: as §1

wild oat [7] = test: as above; conditions: dose 3.2 g/a
Procedure, shortened: as §1

large crabgrass [8] = test: as above; conditions: dose 3.2 g/a
Procedure, shortened: as §1

common ragweed [9] = test: as above; conditions: dose 3.2 g/a
Procedure, shortened: as §1

common chickweed [10] = test: as above; conditions: dose 3.2 g/a
Procedure, shortened: as §1

posumbu knotweed [11] = test: as above; conditions: dose 3.2 g/a
Procedure, shortened: as §1

Italian ryegrass [12] = test: as above; conditions: dose 3.2 g/a
Procedure, shortened: as §1

water foxtail [13] = test: as above; conditions: dose 3.2 g/a
Procedure, shortened: as §1

transplanted rice = test: Test Example 1: preemergence treatment under submerged conditions, effect on crop; conditions: dose 2.52 g/a
Procedure, shortened: (§2)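 Scoring 0 (<5% mortality) to 5 (≥90%) was done three weeks after preemergence application to the water surface of submerged (4 cm) alluvial soil, doses given as g per are. Weeds were seeded and 2.5-leaf rice transplanted on the treatment day; greenhouse at 25–30 °C.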

barnyardgrass [14] = test: Test Example 2: herbicidal effects during the vegetation period under submerged conditions; conditions: treatment during the vegetation period under submerged conditions; dose 2.52 g/a
Procedure, shortened: (§3)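 Barnyardgrass, bulrush and ducksalad were co-sown in alluvial soil flooded to 4 cm and grown in a greenhouse at 25 to 30° C. At the 1- or 2-leaf stage, water-diluted emulsifiable concentrates went onto the water surface at set doses (g/a). Herbicidal effect was scored three weeks later on a graded scale.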

bulrush [15] = test: as above; conditions: treatment during the vegetation period under submerged conditions; dose 2.52 g/a
Procedure, shortened: as §3

ducksalad [16] = test: as above; conditions: treatment during the vegetation period under submerged conditions; dose 2.52 g/a
Procedure, shortened: as §3

velvetleaf [17] = test: Test Example 3: herbicidal effects in soil treatment; conditions: dose 3.2 g/a
Procedure, shortened: (§4)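 Seeds were sown in sterilized diluvial soil and covered with about 1.5 cm of soil. Compounds, formulated as emulsifiable concentrates and diluted with water, were sprayed evenly over the soil surface at set doses in g/a. Herbicidal effect was scored on a rating scale three weeks later.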

barnyardgrass [18] = test: as above; conditions: dose 3.2 g/a
Procedure, shortened: as §4

common lambsquater [19] = test: as above; conditions: dose 3.2 g/a
Procedure, shortened: as §4

giant foxtail [20] = test: as above; conditions: dose 3.2 g/a
Procedure, shortened: as §4

beadstraw [21] = test: as above; conditions: dose 3.2 g/a
Procedure, shortened: as §4

redroot pigweed [22] = test: as above; conditions: dose 3.2 g/a
Procedure, shortened: as §4

wild oat [23] = test: as above; conditions: dose 3.2 g/a
Procedure, shortened: as §4

large crabgrass [24] = test: as above; conditions: dose 3.2 g/a
Procedure, shortened: as §4

common ragweed [25] = test: as above; conditions: dose 3.2 g/a
Procedure, shortened: as §4

common chickweed [26] = test: as above; conditions: dose 3.2 g/a
Procedure, shortened: as §4

posumbu knotweed [27] = test: as above; conditions: dose 3.2 g/a
Procedure, shortened: as §4

Italian ryegrass [28] = test: as above; conditions: dose 3.2 g/a
Procedure, shortened: as §4

water foxtail [29] = test: as above; conditions: dose 3.2 g/a
Procedure, shortened: as §4

barnyardgrass [30] = test: Test Example 1: herbicidal effects in preemergence treatment under submerged conditions; conditions: dose 2.52 g/a
Procedure, shortened: as §2

bulrush [31] = test: as above; conditions: dose 2.52 g/a
Procedure, shortened: as §2

ducksalad [32] = test: as above; conditions: dose 2.52 g/a
Procedure, shortened: as §2

[33] = three weeks after the application

## CCOC(=O)N(c1ccccc1CN1COCN(C)C1=O)S(=O)(=O)C(F)(F)F [IV-2]
Velvetleaf [1]; [33]
  I: velvetleaf, herbicidal effect: 3 (mortality of at least 40% and less than 70%)
Barnyardgrass [2]; [33]
  A: barnyardgrass, herbicidal effect: 4 (mortality of at least 70% and less than 90%)
Common lambsquater [3]; [33]
  L: common lambsquater, herbicidal effect: 0 (mortality of less than 5% (almost ineffective))
Giant foxtail [4]; [33]
  E: giant foxtail, herbicidal effect: 3 (mortality of at least 40% and less than 70%)
Beadstraw [5]; [33]
  O: beadstraw, herbicidal effect: 0 (mortality of less than 5% (almost ineffective))
Redroot pigweed [6]; [33]
  K: redroot pigweed, herbicidal effect: 0 (mortality of less than 5% (almost ineffective))
Wild oat [7]; [33]
  F: wild oat, herbicidal effect: 0 (mortality of less than 5% (almost ineffective))
Large crabgrass [8]; [33]
  D: large crabgrass, herbicidal effect: 5 (mortality of 90% or above (nearly complete death))
Common ragweed [9]; [33]
  J: common ragweed, herbicidal effect: 1 (mortality of at least 5% and less than 20%)
Common chickweed [10]; [33]
  N: common chickweed, herbicidal effect: 0 (mortality of less than 5% (almost ineffective))
Posumbu knotweed [11]; [33]
  M: posumbu knotweed, herbicidal effect: 0 (mortality of less than 5% (almost ineffective))
Italian ryegrass [12]; [33]
  H: Italian ryegrass, herbicidal effect: 0 (mortality of less than 5% (almost ineffective))
Water foxtail [13]; [33]
  G: water foxtail, herbicidal effect: 5 (mortality of 90% or above (nearly complete death))
Transplanted rice
  a: transplanted rice, effect on crop (evaluation scale 0-5): 0 (mortality of less than 5% (almost ineffective))
Barnyardgrass [14]
  A: barnyardgrass, herbicidal effect (evaluation scale 0-5): 5 (mortality of 90% or above (nearly complete death))
Bulrush [15]
  B: bulrush, herbicidal effect (evaluation scale 0-5): 5 (mortality of 90% or above (nearly complete death))
Ducksalad [16]
  C: ducksalad, herbicidal effect (evaluation scale 0-5): 4 (mortality of at least 70% and less than 90%)
Velvetleaf [17]
  herbicidal effect, I: velvetleaf: 2 (mortality of at least 20% and less than 40%)
Barnyardgrass [18]
  herbicidal effect, A: barnyardgrass: 5 (mortality of 90% or above (nearly complete death))
Common lambsquater [19]
  herbicidal effect, L: common lambsquater: 0 (mortality of less than 5% (almost ineffective))
Giant foxtail [20]
  herbicidal effect, E: giant foxtail: 4 (mortality of at least 70% and less than 90%)
Beadstraw [21]
  herbicidal effect, O: beadstraw: 0 (mortality of less than 5% (almost ineffective))
Redroot pigweed [22]
  herbicidal effect, K: redroot pigweed: 0 (mortality of less than 5% (almost ineffective))
Wild oat [23]
  herbicidal effect, F: wild oat: 0 (mortality of less than 5% (almost ineffective))
Large crabgrass [24]
  herbicidal effect, D: large crabgrass: 5 (mortality of 90% or above (nearly complete death))
Common ragweed [25]
  herbicidal effect, J: common ragweed: 0 (mortality of less than 5% (almost ineffective))
Common chickweed [26]
  herbicidal effect, N: common chickweed: 0 (mortality of less than 5% (almost ineffective))
Posumbu knotweed [27]
  herbicidal effect, M: posumbu knotweed: 0 (mortality of less than 5% (almost ineffective))
Italian ryegrass [28]
  herbicidal effect, H: Italian ryegrass: 2 (mortality of at least 20% and less than 40%)
Water foxtail [29]
  herbicidal effect, G: water foxtail: 5 (mortality of 90% or above (nearly complete death))
Barnyardgrass [30]
  A: barnyardgrass, herbicidal effect (evaluation scale 0-5): 5 (mortality of 90% or above (nearly complete death))
Bulrush [31]
  B: bulrush, herbicidal effect (evaluation scale 0-5): 5 (mortality of 90% or above (nearly complete death))
Ducksalad [32]
  C: ducksalad, herbicidal effect (evaluation scale 0-5): 3 (mortality of at least 40% and less than 70%)

## CCOC(=O)N(c1ccccc1CN1COC(C)(C)C(F)C1=O)S(=O)(=O)C(F)(F)F (stereo not drawn) [II-34]
Velvetleaf [1]; three weeks after application
  I: velvetleaf, herbicidal effect: 3 (mortality of at least 40% and less than 70%)
Barnyardgrass [2]; three weeks after application
  A: barnyardgrass, herbicidal effect: 5 (mortality of 90% or above (nearly complete death))
Common lambsquater [3]; three weeks after application
  L: common lambsquater, herbicidal effect: 3 (mortality of at least 40% and less than 70%)
Giant foxtail [4]; three weeks after application
  E: giant foxtail, herbicidal effect: 3 (mortality of at least 40% and less than 70%)
Beadstraw [5]; three weeks after application
  O: beadstraw, herbicidal effect: 4 (mortality of at least 70% and less than 90%)
Redroot pigweed [6]; three weeks after application
  K: redroot pigweed, herbicidal effect: 2 (mortality of at least 20% and less than 40%)
Wild oat [7]; three weeks after application
  F: wild oat, herbicidal effect: 0 (mortality of less than 5% (almost ineffective))
Large crabgrass [8]; three weeks after application
  D: large crabgrass, herbicidal effect: 4 (mortality of at least 70% and less than 90%)
Common ragweed [9]; three weeks after application
  J: common ragweed, herbicidal effect: 4 (mortality of at least 70% and less than 90%)
Common chickweed [10]; three weeks after application
  N: common chickweed, herbicidal effect: 4 (mortality of at least 70% and less than 90%)
Posumbu knotweed [11]; three weeks after application
  M: posumbu knotweed, herbicidal effect: 4 (mortality of at least 70% and less than 90%)
Italian ryegrass [12]; three weeks after application
  H: Italian ryegrass, herbicidal effect: 4 (mortality of at least 70% and less than 90%)
Water foxtail [13]; three weeks after application
  G: water foxtail, herbicidal effect: 5 (mortality of 90% or above (nearly complete death))
Transplanted rice
  a: transplanted rice, effect on crop (evaluation scale 0-5): 0 (mortality of less than 5% (almost ineffective))
Barnyardgrass [14]
  A: barnyardgrass, herbicidal effect (evaluation scale 0-5): 5 (mortality of 90% or above (nearly complete death))
Bulrush [15]
  B: bulrush, herbicidal effect (evaluation scale 0-5): 5 (mortality of 90% or above (nearly complete death))
Ducksalad [16]
  C: ducksalad, herbicidal effect (evaluation scale 0-5): 5 (mortality of 90% or above (nearly complete death))
Velvetleaf [17]
  I: velvetleaf, herbicidal effect (evaluation scale 0-5): 3 (mortality of at least 40% and less than 70%)
Barnyardgrass [18]
  A: barnyardgrass, herbicidal effect (evaluation scale 0-5): 5 (mortality of 90% or above (nearly complete death))
Common lambsquater [19]
  L: common lambsquater, herbicidal effect (evaluation scale 0-5): 3 (mortality of at least 40% and less than 70%)
Giant foxtail [20]
  E: giant foxtail, herbicidal effect (evaluation scale 0-5): 4 (mortality of at least 70% and less than 90%)
Beadstraw [21]
  O: beadstraw, herbicidal effect (evaluation scale 0-5): 4 (mortality of at least 70% and less than 90%)
Redroot pigweed [22]
  K: redroot pigweed, herbicidal effect (evaluation scale 0-5): 3 (mortality of at least 40% and less than 70%)
Wild oat [23]
  F: wild oat, herbicidal effect (evaluation scale 0-5): 0 (mortality of less than 5% (almost ineffective))
Large crabgrass [24]
  D: large crabgrass, herbicidal effect (evaluation scale 0-5): 5 (mortality of 90% or above (nearly complete death))
Common ragweed [25]
  J: common ragweed, herbicidal effect (evaluation scale 0-5): 4 (mortality of at least 70% and less than 90%)
Common chickweed [26]
  N: common chickweed, herbicidal effect (evaluation scale 0-5): 3 (mortality of at least 40% and less than 70%)
Posumbu knotweed [27]
  M: posumbu knotweed, herbicidal effect (evaluation scale 0-5): 5 (mortality of 90% or above (nearly complete death))
Italian ryegrass [28]
  H: Italian ryegrass, herbicidal effect (evaluation scale 0-5): 2 (mortality of at least 20% and less than 40%)
Water foxtail [29]
  G: water foxtail, herbicidal effect (evaluation scale 0-5): 5 (mortality of 90% or above (nearly complete death))
Barnyardgrass [30]
  A: barnyardgrass, herbicidal effect (evaluation scale 0-5): 5 (mortality of 90% or above (nearly complete death))
Bulrush [31]
  B: bulrush, herbicidal effect (evaluation scale 0-5): 5 (mortality of 90% or above (nearly complete death))
Ducksalad [32]
  C: ducksalad, herbicidal effect (evaluation scale 0-5): 5 (mortality of 90% or above (nearly complete death))
